The values that follow come from ChEMBL document CHEMBL1140031, “Cyclic voltammetric analysis of 2-styrylchromones: relationship with the antioxidant activity” (Bioorg Med Chem, 2008).

The term IC30 denotes the concentration at which the effect reaches the 30% level. As a reminder, the IC50 is the midpoint of a concentration-inhibition curve.

Holding throughout (type): functional
Experiment [1] in a line: Antioxidant activity assessed as singlet oxygen scavenging activity.
Experiment [2] is described as follows: Antioxidant activity assessed as superoxide radical scavenging activity.
Experiment [3] is described as follows: Antioxidant activity assessed as peroxynitrite radical scavenging activity in absence of NaHCO3.
A short description of experiment [4]: Antioxidant activity assessed as peroxynitrite radical scavenging activity in presence of NaHCO3.
Experiment [5] is described as follows: Antioxidant activity assessed as H2O2 scavenging activity at 125 uM.
Experiment [6] can be described thus: Antioxidant activity assessed as hypochlorous acid scavenging activity.

On to `O=c1cc(/C=C/c2ccc(O)c(O)c2)oc2cc(O)ccc12`, for which the 30% effect concentration (IC30) in experiment [1] worked out at 3700 nM. Besides, the IC27 in experiment [2] is 18.9 µM. Besides, the values for the IC50 in experiment [3], in experiment [4] and in experiment [6] were 300 nM, 610 nM and 18000 nM, respectively. Besides, in experiment [5], the Activity was found to be 50.8%.
Turning to `O=c1cc(/C=C/c2ccc(O)c(O)c2)oc2cccc(O)c12`, the 30% effect concentration (IC30) in experiment [1] stood at 1900 nM. Besides, the IC27 in experiment [2] is 46.6 µM. Moreover, the IC50 in experiment [3] was found to be 260 nM; in experiment [4] it was 510 nM; in experiment [6] it was 16900 nM. Besides, the Activity in experiment [5] was 50.8%.
In the case of `O=c1cc(/C=C/c2ccc(O)c(O)c2)oc2cc(O)cc(O)c12`, in experiment [1], the concentration for an effect of 30% (IC30) stood at 2300 nM. Further, in experiment [2], the IC27 stood at 28.8 µM. The IC50 in experiment [3] is 260 nM; in experiment [4], 630 nM; in experiment [6], 3900 nM. Also, the Activity in experiment [5] was determined as 66.7%.
In the case of `O=c1cc(/C=C/c2ccccc2)oc2cc(O)cc(O)c12`, the IC30 in experiment [1] was determined as 81300 nM. Further, in experiment [2], the IC27 was 125 µM. For the same compound, the 50% inhibitory concentration (IC50) was found to be 46600 nM in experiment [3], 40600 nM in experiment [4] and 5700 nM in experiment [6].
For `O=c1cc(/C=C/c2ccc(O)cc2)oc2cc(O)cc(O)c12`, the IC30 in experiment [1] was found to be 72300 nM. The concentration for half-maximal inhibition (IC50) turned out to be 1250 nM in experiment [3], 1210 nM in experiment [4] and 8500 nM in experiment [6]. In addition, the Activity in experiment [5] is 10.6%.
Regarding `O=c1cc(/C=C/c2ccccc2)oc2cc(O)ccc12`, the IC27 in experiment [2] is 55.9 µM. The half-inhibitory concentration (IC50) in experiment [6] was 72300 nM.
In the case of `O=c1cc(/C=C/c2ccc(O)cc2)oc2cccc(O)c12`, in experiment [1], the concentration for an effect of 30% (IC30) worked out at 40000 nM. Besides, the IC50 worked out at 1040 nM in experiment [3] and 980 nM in experiment [4]. For the same compound, the Activity in experiment [5] amounted to 16.9%.
With `O=c1cc(/C=C/c2ccc(O)cc2)oc2ccccc12`, the IC30 in experiment [1] came out at 105000 nM. In addition, in experiment [2], the IC27 was 56 µM. Also, the IC50 in experiment [3] was 1200 nM; in experiment [4] it was 1230 nM.
Take `O=c1cc(/C=C/c2ccc(O)c(O)c2)oc2ccccc12`: the IC30 in experiment [1] was determined as 2700 nM. Moreover, the IC27 in experiment [2] stood at 42.4 µM. The IC50 in experiment [3] amounted to 240 nM; in experiment [4], 440 nM; in experiment [6], 31200 nM. Moreover, in experiment [5], the Activity is 44.1%.
`O=c1cc(/C=C/c2ccc(O)cc2)oc2cc(O)ccc12`: in experiment [1], the IC30 was found to be 93400 nM. For the same compound, the IC27 in experiment [2] stood at 17.7 µM. The 50% inhibitory concentration (IC50) in experiment [3] was determined as 1400 nM; in experiment [4] it was 1650 nM; in experiment [6] it was 92000 nM.
